Tested on: logarithmic E. coli cells
Assay: Preservation survival and stability of logarithmic E. coli cells loaded in vitro before foam drying
Assay type: cell-based
Settings: for Preservation Yield (Day 0) % Survival / Preservation Yield (Day 0) Cfu/ml / Stability (Day 7 at RT) % Survival / Stability (Day 7 at RT) Cfu/ml / Stability (Day 14) % Survival / Stability (Day 14) Cfu/ml: loaded with 10% MAG at 37° C. for 30 minutes
Protocol: (3) Loading of fresh electrocompetent E. coli cells before preservation: When applicable, one aliquot of the cell concentrate (3.2 ml of cells in PBS buffer, approx. 2×10^10 cfu/ml) was mixed with 0.8 ml of 50% methyl-glucoside (MAG; 10% final concentration) and incubated at 37° C. for 30 minutes (in vitro loading). A second aliquot (3.2 ml of the cell concentrate) was mixed with 0.8 ml of PBS buffer and incubated on ice for 30 minutes (control, unloaded cells). Similar to loading with MAG, the cells were loaded with 2-deoxyglucose (2-DOG) as described in Example 5 infra.
(4) Preservation of electrocompetent E. coli cells: The cells (resuspended in PBS buffer or on 20% sucrose) were mixed with an equal mass of preservation solution consisting of 45% 2:1 sucrose:raffinose or 45% 4:1 sucrose:MAG on ice. Altematively, the cell pellets were resuspended directly in 22.5% sucrose:raffinose or 22.5% 4:1 sucrose:MAG. The 0.5 g aliquots were distributed in 5 ml glass serum vials or 0.2 g aliquots were distributed in 1.2 ml glass serum vials. To determine the survival in preservation solution before drying, cell-containing mixtures were diluted in PBS buffer containing 20% sucrose and appropriate dilutions were spread plated in duplicate on L-agar plates.
The samples were dried by foam formation. The mixtures were foamed at 0° C. and kept at that temperature until foam formation occurred. After foam was well formed, shelf temperature was increased to 20° C. and drying continued overnight (at least 12 hours).
(5) Assaying the preserved E. coli cells: Dried samples were rehydrated at room temperature. 1 ml of rehydration solution (20% sucrose) was added to the 5 ml vials and 0.2 ml was added to the 1.2 ml vials. For the determination of preservation survival, rehydrated cells were diluted and spread plated in duplicate on L-agar plates. Plates were incubated at 37° C. overnight and colonies were counted the following day.
Bacterial culture was grown until OD550=0.5 was reached (mid-log growth stage). The cell concentrates were prepared as described previously. Control cells, which were not loaded, were incubated on ice for 30 minutes. Cell concentrates were incubated with different amounts (0.15-1%, 5%, 10% and 15%) of glucose and glucose nonmetabolizable analogs at 37° C. for 30 minutes (loading). These mixtures were preserved as described previously.
Accumulation of MAG in the cells prior to drying enhances preservation of logarithmic E. coli cells. Two cell concentrates (harvested at mid-log growth stage) were prepared as described previously. To induce uptake of MAG, 0.5% glucose was added to the growth medium (“induced culture”). Both concentrates were incubated with 10% MAG at 37° C. for 30 minutes (loading). When loading was completed, one concentrate was diluted 100-fold in PBS buffer and incubated at 37° C. for an additional 30 minutes to induce expulsion of the pre-accumulated MAG. Both concentrates were preserved as described previously.
Mid-logarithmic culture was prepared as described previously. 0.5% glucose was added to the growth medium (“induced cells”). The culture was concentrated 10-fold and the concentrates were incubated for 30 minutes with 10% MAG at different temperatures (0, 20, 40, and 60° C.). The mixtures were preserved as described previously.
Effect of incubation time on accumulation of MAG in logarithmic E. coli cells. Cell concentrates were prepared as described previously (0.5% glucose was added to the growth medium) and incubated with 10% MAG at 37° C. for 0, 2.5, 5, 15, 30, and 60 minutes. The mixtures were preserved as described previously.
Effect of growth stage on accumulation of MAG in E. coli cells. E. coli cultures were grown in L-broth with 0.5% glucose as described previously and harvested at OD550=0.1 (early-log), 0.5 (mid-log), 1.0 (late-log) and 2.0 (stationary cells). The cells in each culture were concentrated and split in two aliquots. […]

[1] = 10% MAG at 37° C., Incubated for 0 min
[2] = 10% MAG at 37° C., Incubated for 2.5 min
[3] = 10% MAG at 37° C., Incubated for 5 min
[4] = 10% MAG at 37° C., Incubated for 15 min
[5] = 10% MAG at 37° C., Incubated for 30 min
[6] = 10% MAG at 37° C., Incubated for 60 min
[7] = 10% MAG for 30 minutes, Loaded at 0° C.
[8] = 10% MAG for 30 minutes, Loaded at 20° C.
[9] = 10% MAG for 30 minutes, Loaded at 40° C.
[10] = 10% MAG for 30 minutes, Loaded at 60° C.

## COC1OC(CO)C(O)C(O)C1O (centres unmarked) [MAG, a-methyl-glucoside]
[1]
  Preservation Yield % Survival: 2.6 +/− 0.8%
  Preservation Yield Cfu/ml: 5.3 × 10^7 +/− 1.7 × 10^7 Cfu/ml
  Stability (7 days at RT) % Survival: 1.2 +/− 0.7%
  Stability (7 days at RT) Cfu/ml: 2.4 × 10^7 Cfu/ml
  Stability (17 days at RT) % Survival: 1.8 +/− 0.5%
  Stability (17 days at RT) Cfu/ml: 3.6 × 10^7 Cfu/ml
[2]
  Preservation Yield % Survival: 5.8 +/− 1.1%
  Preservation Yield Cfu/ml: 1.2 × 10^8 +/− 2.1 × 10^7 Cfu/ml
  Stability (7 days at RT) % Survival: 4.9 +/− 0.8%
  Stability (7 days at RT) Cfu/ml: 9.6 × 10^7 Cfu/ml
  Stability (17 days at RT) % Survival: 2.9 +/− 0.6%
  Stability (17 days at RT) Cfu/ml: 5.9 × 10^7 Cfu/ml
[3]
  Preservation Yield % Survival: 9.9 +/− 0.6%
  Preservation Yield Cfu/ml: 2.0 × 10^8 +/− 1.1 × 10^7 Cfu/ml
  Stability (7 days at RT) % Survival: 6.8 +/− 1.2%
  Stability (7 days at RT) Cfu/ml: 1.4 × 10^8 Cfu/ml
  Stability (17 days at RT) % Survival: 9.5 +/− 2.7%
  Stability (17 days at RT) Cfu/ml: 1.9 × 10^8 Cfu/ml
[4]
  Preservation Yield % Survival: 16.8 +/− 2.8%
  Preservation Yield Cfu/ml: 3.4 × 10^8 +/− 5.6 × 10^7 Cfu/ml
  Stability (7 days at RT) % Survival: 10.4 +/− 0.4%
  Stability (7 days at RT) Cfu/ml: 2.1 × 10^8 Cfu/ml
  Stability (17 days at RT) % Survival: 11.8 +/− 2.6%
  Stability (17 days at RT) Cfu/ml: 2.4 × 10^8 Cfu/ml
[5]
  Preservation Yield % Survival: 19.9 +/− 2.2%
  Preservation Yield Cfu/ml: 4.0 × 10^8 +/− 4.4 × 10^7 Cfu/ml
  Stability (7 days at RT) % Survival: 13.0 +/− 2.7%
  Stability (7 days at RT) Cfu/ml: 2.6 × 10^8 Cfu/ml
  Stability (17 days at RT) % Survival: 16.8 +/− 2.6%
  Stability (17 days at RT) Cfu/ml: 3.4 × 10^8 Cfu/ml
[6]
  Preservation Yield % Survival: 22.2 +/− 3.0%
  Preservation Yield Cfu/ml: 4.4 × 10^8 +/− 6.1 × 10^7 Cfu/ml
  Stability (7 days at RT) % Survival: 16.3 +/− 1.9%
  Stability (7 days at RT) Cfu/ml: 3.3 × 10^8 Cfu/ml
  Stability (17 days at RT) % Survival: 19.3 +/− 3.9%
  Stability (17 days at RT) Cfu/ml: 3.9 × 10^8 Cfu/ml
[7]
  Preservation Yield % Survival: 8.2 +/− 1.4%
  Preservation Yield Cfu/ml: 1.6 × 10^8 Cfu/ml
  Stability (9 Days at RT°) % Survival: 5.0 +/− 0.6%
  Stability (9 Days at RT°) Cfu/ml: 9.4 × 10^7 Cfu/ml
  Stability (16 Days at RT°) % Survival: 5.2 +/− 1.5%
  Stability (16 Days at RT°) Cfu/ml: 9.9 × 10^7 Cfu/ml
[8]
  Preservation Yield % Survival: 14.1 +/− 2.6%
  Preservation Yield Cfu/ml: 2.7 × 10^8 Cfu/ml
  Stability (9 Days at RT°) % Survival: 8.7 +/− 0.6%
  Stability (9 Days at RT°) Cfu/ml: 1.6 × 10^8 Cfu/ml
  Stability (16 Days at RT°) % Survival: 7.3 +/− 1.7%
  Stability (16 Days at RT°) Cfu/ml: 1.4 × 10^8 Cfu/ml
[9]
  Preservation Yield % Survival: 23.2 +/− 3.5%
  Preservation Yield Cfu/ml: 4.4 × 10^8 Cfu/ml
  Stability (9 Days at RT°) % Survival: 28.1 +/− 3.5%
  Stability (9 Days at RT°) Cfu/ml: 5.3 × 10^8 Cfu/ml
  Stability (16 Days at RT°) % Survival: 21.0 +/− 1.9%
  Stability (16 Days at RT°) Cfu/ml: 3.9 × 10^8 Cfu/ml
[10]
  Preservation Yield % Survival: 0%
  Preservation Yield Cfu/ml: 1.4 × 10^4 Cfu/ml
  Stability (9 Days at RT°) % Survival: 0%
  Stability (9 Days at RT°) Cfu/ml: 1.2 × 10^4 Cfu/ml
  Stability (16 Days at RT°) % Survival: 0%
  Stability (16 Days at RT°) Cfu/ml: 1.3 × 10^4 Cfu/ml
OD = 0.1 (early-log)
  Preservation Yield (Day 0) % Survival: 11.3 +/− 0.9%
  Preservation Yield (Day 0) Cfu/ml: 1.6 × 10^7 Cfu/ml
  Stability (Day 7 at RT) % Survival: 8.2 +/− 0.8%
  Stability (Day 7 at RT) Cfu/ml: 1.2 × 10^7 Cfu/ml
  Stability (Day 14) % Survival: 9.9 +/− 2.2%
  Stability (Day 14) Cfu/ml: 1.5 × 10^7 Cfu/ml
OD = 0.5 (mid-log)
  Preservation Yield (Day 0) % Survival: 22.2 +/− 2.9%
  Preservation Yield (Day 0) Cfu/ml: 5.5 × 10^8 Cfu/ml
  Stability (Day 7 at RT) % Survival: 21.6 +/− 4.7%
  Stability (Day 7 at RT) Cfu/ml: 5.3 × 10^8 Cfu/ml
  Stability (Day 14) % Survival: 17.4 +/− 1.2%
  Stability (Day 14) Cfu/ml: 4.3 × 10^8 Cfu/ml
OD = 1.0 (late-log)
  Preservation Yield (Day 0) % Survival: 26.3 +/− 4.7%
  Preservation Yield (Day 0) Cfu/ml: 2.3 × 10^9 Cfu/ml
  Stability (Day 7 at RT) % Survival: 36.1 +/− 7.5%
  Stability (Day 7 at RT) Cfu/ml: 3.2 × 10^9 Cfu/ml
  Stability (Day 14) % Survival: 33.0 +/− 5.7%
  Stability (Day 14) Cfu/ml: 2.9 × 10^9 Cfu/ml
OD = 2.0 (stationary cells)
  Preservation Yield (Day 0) % Survival: 38.8 +/− 5.8%
  Preservation Yield (Day 0) Cfu/ml: 2.8 × 10^9 Cfu/ml
  Stability (Day 7 at RT) % Survival: 29.9 +/− 3.6%
  Stability (Day 7 at RT) Cfu/ml: 2.1 × 10^9 Cfu/ml
  Stability (Day 14) % Survival: 35.3 +/− 7.5%
  Stability (Day 14) Cfu/ml: 2.5 × 10^9 Cfu/ml
mid-logarithmic cells loaded with 1% at 37° C. for 30 minutes
  survived drying: 12%
mid-logarithmic cells loaded with 5% at 37° C. for 30 minutes
  survived drying: 24%
